Earlier results as cited in patent US20030180704A1, “Ice-controlling molecules and uses thereof” (priority 2002, published 2003).

Tested on: Crithidia fasciculata
Conditions: cryopreservation at -20 C, different media

Q: Which “toxicity to Crithidia fasciculata” value does the source give for `OC1CCCC(O)C1` (stereo not shown) [1,3-cyclohexanediol] here?
A: toxic

Same assay, conditions: stored at -20 C, different media

Q: With `OCCC(O)CO` (stereo not shown) [1,2,4-butantriol] as the compound, how does the “ability to cryopreserve Crithidia fasciculata without toxicity” value read?
A: potential outstanding cryoprotectants

Q: With `OC1CCC(O)CC1` (stereo not shown) [1,4-cyclohexanediol] as the compound, how does the “ability to cryopreserve Crithidia fasciculata without toxicity” value read?
A: potential outstanding cryoprotectants

Q: With `CC(=O)NCCO` [N-acetylethanolamine] as the compound, how does the “ability to cryopreserve Crithidia fasciculata without toxicity” value read?
A: potential outstanding cryoprotectants

Q: Which “ability to cryopreserve Crithidia fasciculata without toxicity” value does the source give for `C[S+](C)[O-]` [dimethylsulfoxide] here?
A: potential outstanding cryoprotectants

Q: For `OCC(O)CO` [glycerol], which “ability to cryopreserve Crithidia fasciculata without toxicity” value is on record?
A: best cryoprotectant

Q: With `CC(O)CO` (stereo not shown) [propylene glycol] as the compound, how does the “ability to cryopreserve Crithidia fasciculata without toxicity” value read?
A: potential outstanding cryoprotectants
